How the values were obtained:
RGC-5 cells = assay: RGC-5 cell viability under H2O2 induced oxidative stress; format: cell-based; settings: RGC5, then 500 μM H2O2 24 hours, H2O2 alone 42.05±6.10%, n=6, read-out: RGC-5 cell viability (control: 100%)
Protocol: The RGC-5 cell line was obtained from the American Type Culture Collection (ATCC, No. CRL-2302, Manassas, Va., USA). The RGC-5 cell line represents a lineage of neuronal precursor cells. The RGC-5 cells were maintained in Dulbecco's modified Eagle's medium (DMEM; Falcon, Becton Dickinson, N.J., U.S.A.) containing 10% fetal calf serum, 100 U/mL penicillin and 100 μg/mL streptomycin (Sigma-Aldrich) in a humidified atmosphere of 95% air and 5% CO2 at 37° C. Cell viability was evaluated by counting the cell number using a haemocytometer under an optical microscope.
In the enzyme-linked immunosorbent assay (ELISA), the cells (2.5×10^4 in each well) were plated into 96-well plates. Each well contains 200 μl of DMEM (control) without or with H2O2. Next, the cells were incubated at 37° C. for 1 day and then shifted to serum free medium for the following day. In order to stimulate oxidative stress, 500 μM H2O2 (Sigma-Aldrich 18304/k0250, St Louis, Mo., USA) was then added for 24 hours as described elsewhere. Depending on the experimental protocol, SAC or vehicle was added to some samples 15 minutes before adding H2O2.

MMP-9 = assay: ELISA of MMP-9 protein in RGC-5 cells under H2O2 oxidative stress; format: cell-based; settings: 100 μM SAC 15-minute pre-treatment, 500 μM H2O2 24 hours; control 29.33±4.93, H2O2 100.70±18.80; n=6
Protocol: In the enzyme-linked immunosorbent assay (ELISA), the cells (2.5×10^4 in each well) were plated into 96-well plates. Each well contains 200 μl of DMEM (control) without or with H2O2. Next, the cells were incubated at 37° C. for 1 day and then shifted to serum free medium for the following day. In order to stimulate oxidative stress, 500 μM H2O2 (Sigma-Aldrich 18304/k0250, St Louis, Mo., USA) was then added for 24 hours as described elsewhere. Depending on the experimental protocol, SAC or vehicle was added to some samples 15 minutes before adding H2O2. […] Total protein was determined using a bicinchoninic acid protein kit (Thermo Fisher Scientific Inc., IL, U.S.A.). The HIF-1 Alpha/VEGF/MMP-9 levels in the cells/medium were measured using various ELISA kits, namely HIF-1 Alpha (Uscn Life Science Inc., Wuhan 430056, China); VEGF-A (BMS277/2, Bender […], Austria) and MMP-9 Duoset (D911, R&D, Minneapolis, Minn., U.S.A.). […] The HIF-1 Alpha/VEGF/MMP-9 concentration of each sample was determined by constructing a standard curve using 100 μl of sample diluent containing various amounts of HIF-1 Alpha/VEGF/MMP-9 pure protein (0-1000 pg/ml). […] The absorbance (optical intensity, O.D.) was detected at 450 nm by spectrophotometer (ELx800, Biotek, Winooski, Vt., U.S.A.). […]

For `C=CCSC[C@H](N)C(=O)O` [SAC, S-allyl L-cysteine], the viability at 25 µM (RGC-5 cells; 25 μM SAC 15-minute pre-incubation) was 47.7 ± 4.53%, the viability at 50 µM (RGC-5 cells; 50 μM SAC 15-minute pre-incubation) was 57.5 ± 3.48% and the viability at 100 µM (RGC-5 cells; 100 μM SAC 15-minute pre-incubation) was 70.2 ± 3.32%. For the same compound, the “MMP-9 protein level (ELISA)” value (MMP-9) was 52.55 ± 2.72 pg/mL.

Reference: patent US8569372B2, “Method for preventing or treating a disease, disorder or condition induced by retina ischemia” (priority 2011, dated 2013)
